Several values for one entry are separate records, joined by “and”; a condition that tells them apart may be missing. Equal entries are not always repeated. Inconclusive results and toxic doses are left out. No stated cut-off is given here; in the data, active means T/C of 150% or more; inactive means T/C below 125%.
System: L1210 leukemia ip in BDF1 mice, survival T/C
Test: NCI In Vivo Anticancer Drug Screen. Data for tumor model L1210 Leukemia (intraperitoneal) in B6D2F1 (BDF1) mice
Conditions: endpoint: mean survival time, higher = longer survival
How it was run: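 Tumor cells were implanted, animals were treated, and survival was followed. The result divides the treated measurement by the vehicle-control measurement.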

[1] = dose: 25.0 mg/kg/injection, schedule: Q01DX009 (ip), vehicle: saline with Tween-80
[2] = dose: 25.0 mg/kg/injection, schedule: Q01DX009 (ip), vehicle: saline
[3] = dose: 25.0 mg/kg/injection, schedule: Q04DX003 (ip), vehicle: saline
[4] = dose: 37.5 mg/kg/injection, schedule: Q04DX003 (ip), vehicle: saline
[5] = dose: 50.0 mg/kg/injection, schedule: Q04DX003 (ip), vehicle: saline
[6] = dose: 75.0 mg/kg/injection, schedule: Q04DX003 (ip), vehicle: saline
[7] = dose: 100.0 mg/kg/injection, schedule: Q01DX001 (ip), vehicle: saline
[8] = dose: 100.0 mg/kg/injection, schedule: Q04DX003 (ip), vehicle: saline
[9] = dose: 50.0 mg/kg/injection, schedule: Q01DX009 (ip), vehicle: Klucel (hydroxypropylcellulose) (HPC)
[10] = dose: 100.0 mg/kg/injection, schedule: Q01DX009 (ip), vehicle: Klucel (hydroxypropylcellulose) (HPC)

Measured: T/C

CN1CCN(CCCN2c3ccccc3Sc3ccc(C(F)(F)F)cc32)CC1
inactive: dose: 3.12 mg/kg/injection, schedule: Q01DX009 (ip), vehicle: saline 93 % of control | dose: 6.25 mg/kg/injection, schedule: Q01DX009 (ip), vehicle: saline 98 % of control and 104 % of control and 118 % of control | dose: 9.0 mg/kg/injection, schedule: Q04DX003 (ip), vehicle: saline with Tween-80 112 % of control | dose: 9.3 mg/kg/injection, schedule: Q01DX009 (ip), vehicle: saline 101 % of control | dose: 10.0 mg/kg/injection, schedule: Q01DX009 (ip), vehicle: saline with Tween-80 106 % of control | dose: 12.5 mg/kg/injection, schedule: Q01DX009 (ip), vehicle: saline 113 % of control and 106 % of control | dose: 12.5 mg/kg/injection, schedule: Q04DX003 (ip), vehicle: saline 102 % of control | dose: 15.0 mg/kg/injection, schedule: Q01DX009 (ip), vehicle: saline with Tween-80 101 % of control | dose: 18.0 mg/kg/injection, schedule: Q01DX001 (ip), vehicle: saline with Tween-80 104 % of control | dose: 18.0 mg/kg/injection, schedule: Q04DX003 (ip), vehicle: saline with Tween-80 117 % of control | dose: 18.7 mg/kg/injection, schedule: Q01DX009 (ip), vehicle: saline 114 % of control | dose: 18.75 mg/kg/injection, schedule: Q04DX003 (ip), vehicle: saline 106 % of control | dose: 20.0 mg/kg/injection, schedule: Q04DX003 (ip), vehicle: saline with Tween-80 111 % of control | dose: 22.0 mg/kg/injection, schedule: Q01DX009 (ip), vehicle: saline with Tween-80 118 % of control | dose: 25.0 mg/kg/injection, schedule: Q01DX009 (ip), vehicle: acetone 107 % of control | [1] 108 % of control | [2] 102 % of control and 109 % of control | dose: 25.0 mg/kg/injection, schedule: Q04DX003 (ip), vehicle: acetone 100 % of control | [3] 103 % of control [middle of 4 runs] | dose: 30.0 mg/kg/injection, schedule: Q04DX003 (ip), vehicle: saline with Tween-80 119 % of control | dose: 33.0 mg/kg/injection, schedule: Q01DX009 (ip), vehicle: saline with Tween-80 123 % of control | dose: 37.0 mg/kg/injection, schedule: Q01DX001 (ip), vehicle: saline with Tween-80 104 % of control | [4] 96 % of control | dose: 44.0 mg/kg/injection, schedule: Q04DX003 (ip), vehicle: saline with Tween-80 116 % of control | dose: 50.0 mg/kg/injection, schedule: Q01DX009 (ip), vehicle: acetone 120 % of control | dose: 50.0 mg/kg/injection, schedule: Q04DX003 (ip), vehicle: acetone 100 % of control | [5] 111 % of control [middle of 4 runs] | dose: 66.0 mg/kg/injection, schedule: Q04DX003 (ip), vehicle: saline with Tween-80 108 % of control | dose: 75.0 mg/kg/injection, schedule: Q01DX001 (ip), vehicle: saline with Tween-80 113 % of control | dose: 75.0 mg/kg/injection, schedule: Q04DX003 (ip), vehicle: saline with Tween-80 119 % of control | [6] 102 % of control | [7] 101 % of control | dose: 100.0 mg/kg/injection, schedule: Q01DX009 (ip), vehicle: acetone 113 % of control | dose: 100.0 mg/kg/injection, schedule: Q04DX003 (ip), vehicle: acetone 121 % of control | [8] 99 % of control and 112 % of control | dose: 150.0 mg/kg/injection, schedule: Q01DX001 (ip), vehicle: saline with Tween-80 90 % of control

O=C(N=c1scc(-c2ccc(Br)cc2)n1-c1cccc2ccccc12)c1ccccc1F
inactive: [1] 89 % of control | dose: 50.0 mg/kg/injection, schedule: Q01DX009 (ip), vehicle: saline with Tween-80 87 % of control | dose: 100.0 mg/kg/injection, schedule: Q01DX009 (ip), vehicle: saline with Tween-80 93 % of control

CCOC(=O)c1ccc(NCC(C)(C)N(C)C)cc1
inactive: dose: 12.0 mg/kg/injection, schedule: Q01DX009 (ip), vehicle: saline 93 % of control | dose: 12.0 mg/kg/injection, schedule: Q04DX003 (ip), vehicle: saline 93 % of control | [2] 89 % of control | [3] 98 % of control | dose: 50.0 mg/kg/injection, schedule: Q01DX009 (ip), vehicle: saline 90 % of control | [5] 95 % of control

O=S(c1ccc(Cl)cc1)N(OCc1ccccc1)S(=O)c1ccc(Cl)cc1 (stereo not given)
inactive: dose: 50.0 mg/kg/injection, schedule: Q01DX001 (ip), vehicle: Klucel (hydroxypropylcellulose) (HPC) 107 % of control | dose: 100.0 mg/kg/injection, schedule: Q01DX001 (ip), vehicle: Klucel (hydroxypropylcellulose) (HPC) 100 % of control | dose: 200.0 mg/kg/injection, schedule: Q01DX001 (ip), vehicle: Klucel (hydroxypropylcellulose) (HPC) 100 % of control

COc1ccc([N+](=O)[O-])cc1NC(=O)Nc1ccc(N(C)C(C)=O)cc1
inactive: [9] 105 % of control | [10] 111 % of control | dose: 200.0 mg/kg/injection, schedule: Q01DX009 (ip), vehicle: Klucel (hydroxypropylcellulose) (HPC) 101 % of control

Clc1ccc2nc(Cl)c(Cl)nc2c1
inactive: dose: 100.0 mg/kg/injection, schedule: Q04DX003 (ip), vehicle: Klucel (hydroxypropylcellulose) (HPC) 91 % of control | dose: 200.0 mg/kg/injection, schedule: Q04DX003 (ip), vehicle: Klucel (hydroxypropylcellulose) (HPC) 96 % of control

CC(=O)N(C)N=Nc1ccc(C)cc1
inactive: dose: 25.0 mg/kg/injection, schedule: Q01DX009 (ip), vehicle: Klucel (hydroxypropylcellulose) (HPC) 116 % of control | dose: 25.0 mg/kg/injection, schedule: Q04DX003 (ip), vehicle: other 101 % of control | [9] 110 % of control | dose: 50.0 mg/kg/injection, schedule: Q04DX003 (ip), vehicle: other 106 % of control | [10] 102 % of control and 108 % of control | dose: 100.0 mg/kg/injection, schedule: Q04DX003 (ip), vehicle: other 118 % of control | dose: 200.0 mg/kg/injection, schedule: Q04DX003 (ip), vehicle: other 123 % of control | dose: 400.0 mg/kg/injection, schedule: Q01DX009 (ip), vehicle: Klucel (hydroxypropylcellulose) (HPC) 105 % of control and 123 % of control

CCCCCCC(C)S(=O)(=O)c1ccc(C)cc1 (stereo not given)
inactive: [7] 87 % of control and 94 % of control | dose: 200.0 mg/kg/injection, schedule: Q01DX001 (ip), vehicle: saline 90 % of control and 91 % of control | dose: 400.0 mg/kg/injection, schedule: Q01DX001 (ip), vehicle: saline 94 % of control

O=c1[nH]c(=O)c2nc3cc(Br)cnc3nc2[nH]1
inactive: [8] 95 % of control | dose: 200.0 mg/kg/injection, schedule: Q04DX003 (ip), vehicle: saline 102 % of control | dose: 400.0 mg/kg/injection, schedule: Q04DX003 (ip), vehicle: saline 103 % of control

CN1CCN(c2nc3ccccc3n3nnnc23)CC1
inactive: [4] 104 % of control | [6] 107 % of control

O=C1C=CC2=Nc3ccccc3CCC2=C1
inactive: dose: 75.0 mg/kg/injection, schedule: Q01DX001 (ip), vehicle: steriod suspending solution 93 % of control | dose: 150.0 mg/kg/injection, schedule: Q01DX001 (ip), vehicle: steriod suspending solution 93 % of control | dose: 300.0 mg/kg/injection, schedule: Q01DX001 (ip), vehicle: steriod suspending solution 92 % of control

O=C1CCC(=O)N1c1ccccc1
inactive: dose: 100.0 mg/kg/injection, schedule: Q04DX002 (ip), vehicle: Klucel (hydroxypropylcellulose) (HPC) 96 % of control | dose: 200.0 mg/kg/injection, schedule: Q04DX002 (ip), vehicle: Klucel (hydroxypropylcellulose) (HPC) 92 % of control | dose: 400.0 mg/kg/injection, schedule: Q04DX002 (ip), vehicle: Klucel (hydroxypropylcellulose) (HPC) 92 % of control

Source: PubChem BioAssay AID248 (DTP/NCI, 2004)
